Source: PubChem BioAssay (NCI)
“And” between values parts separate entries of the source, which are not always exact repeats. Equal values may be shown once.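 Following 48 hours of exposure in 96-well plates, responses at five concentrations were used to interpolate endpoints linearly. Abbreviation: GI50, concentration required for 50% inhibition of growth. TGI denotes the concentration required for complete inhibition of growth.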

Legend:
Assay in all cases: NCI tumour cell line growth inhibition, 48 h
SNB-75 CNS = tested on: SNB-75 CNS
UACC-62 melanoma = tested on: UACC-62 melanoma
SK-MEL-2 melanoma = tested on: SK-MEL-2 melanoma
SNB-19 CNS = tested on: SNB-19 CNS
HCC-2998 colon = tested on: HCC-2998 colon
SF-268 CNS = tested on: SF-268 CNS
CCRF-CEM leukemia = tested on: CCRF-CEM leukemia
LOX IMVI melanoma = tested on: LOX IMVI melanoma
HOP-92 NSCLC = tested on: HOP-92 NSCLC
UACC-257 melanoma = tested on: UACC-257 melanoma

Row | SMILES | GI50 (SNB-75 CNS) | TGI (SNB-75 CNS) | GI50 (UACC-62 melanoma) | TGI (UACC-62 melanoma) | GI50 (SK-MEL-2 melanoma) | TGI (SK-MEL-2 melanoma) | GI50 (SNB-19 CNS) | TGI (SNB-19 CNS) | GI50 (HCC-2998 colon) | TGI (HCC-2998 colon) | GI50 (SF-268 CNS) | TGI (SF-268 CNS) | GI50 (CCRF-CEM leukemia) | TGI (CCRF-CEM leukemia) | GI50 (LOX IMVI melanoma) | TGI (LOX IMVI melanoma) | GI50 (HOP-92 NSCLC) | TGI (HOP-92 NSCLC) | GI50 (UACC-257 melanoma) | TGI (UACC-257 melanoma)
1 | CCOC(=O)Nc1ccc2c(c1)/C(=N\NC(N)=S)c1ccccc1-2 | 4.19 µM | 18.2 µM | 2.03 µM | 4.77 µM | 4.95 µM | 15.8 µM | 9.92 µM | > 100 µM | 4.77 µM | 22.5 µM | 6.14 µM | 39.9 µM | 3.49 µM | 31.5 µM | 3.52 µM | 20.2 µM | 8.49 µM | 62.5 µM | 3.55 µM | 12.7 µM
2 | CN(O)C(=O)SCC(NC(=O)CCC(N)C(=O)O)C(=O)NCC(=O)O (stereo not drawn) | > 2000 µM | > 2000 µM | > 2000 µM | > 2000 µM | > 2 µM and 524 µM | > 2000 µM | > 2000 µM | > 2000 µM |  | > 2 µM | > 2 µM | > 2000 µM | 198 µM and 520 µM | > 2 µM and 649 µM and 1240 µM | 668 µM | > 2000 µM | > 2000 µM | > 2000 µM | > 2000 µM | > 2000 µM
3 | CCN(CC)c1c(C(=O)/C=C/c2ccc(Cl)cc2)c(-c2ccccc2)nn(C)c1=O |  | 7.5 µM |  | 3.31 µM |  | 3.62 µM |  | 3.98 µM |  | 3.24 µM |  | 3.4 µM |  | 8.82 µM |  | 3.48 µM |  | 4.33 µM |  | 3.76 µM
4 | O=C1C(Cl)=C(Nc2cccc(F)c2)C(=O)N1Cc1ccc(Cl)cc1 | 0.438 µM | 7.63 µM |  | 2.48 µM | 5.96 µM | > 28.4 µM | 2.57 µM | 16.1 µM | 0.935 µM | 4.88 µM | 1.43 µM | 8.07 µM | 0.118 µM | 11.1 µM | 0.649 µM | 3.41 µM | 11.4 µM | 26.2 µM | 3.95 µM | 20.8 µM
5 | O=c1[nH]c(=O)c2cn[nH]c2[nH]1 | > 100 µM | > 100 µM | > 100 µM | > 100 µM | > 100 µM | > 100 µM | > 100 µM | > 100 µM | > 100 µM | > 100 µM | > 100 µM | > 100 µM | > 100 µM | > 100 µM | > 100 µM | > 100 µM | > 100 µM | > 100 µM | > 100 µM | > 100 µM
6 | C=CCN=c1sc2c(n1NC(=O)c1cc3ccc1CCc1ccc(cc1)CC3)C(=O)c1ccccc1C2=O | 0.843 µM | 2.77 µM | 1.63 µM | 3.91 µM | 1.74 µM | 4.32 µM | 1.67 µM | 3.44 µM | 1.62 µM | 3.14 µM | 1.68 µM | 4.48 µM | 2.39 µM | > 100 µM | 0.532 µM | 2.1 µM | 1.56 µM | 4.19 µM | 1.55 µM | 3.15 µM
